Data from publication PMC11292009, “Mapping protein binding sites by photoreactive fragment pharmacophores” (Communications Chemistry, 2024).

Columns and labels:
Format in all cases: binding
[1] = tested on: carbonic anhydrase II (CA); experiment: Intact protein MS photoaffinity labeling screen, carbonic anhydrase; conditions: intact protein MS after 10 min irradiation
Procedure: (§1) Using a plate-based format with one fragment per well, each fragment was incubated with the target proteins for 15 min to allow for the formation of non-covalent interactions. […] Finally, the results were directly analyzed from the plate using intact protein mass spectrometry by observing the mass additions that correspond to successful labeling (Fig. 2c, for labeling % values see Supplementary data). The library was first characterized against three benchmark proteins like carbonic anhydrase (CA), lysozyme (Lyo), and myoglobin (Myo).

BRD4-BD1 = tested on: T1, BRD4-BD1; experiment: Intact MS photoaffinity labeling screen, BRD4-BD1 (302 nm, LCMS-TOF); conditions: for experimental hit status BRD4-BD1: 0/1 flag; for MS labeling percentage, BRD4: BRD4-BD1, 302 nm 10 min
T1 construct: screened the PhP library against the first bromodomain of BRD4 (BRD4-BD1); purchased GSK/GenScript
Procedure: as §1
(§2) The PhP library was screened against BRD4-BD1 and KRas^G12D as follows. […] The probe plate was placed on ice. 15 μL of protein stock solution (1 μM BRD4-BD1 (GSK/GenScript) or KRas^G12D (GSK/GenScript) in PBS buffer) was dispensed into wells containing fragments. The plate was left on ice for 15 min for incubation, then irradiated at 302 nm for 10 min, and centrifuged (1000 rpm, 1 min) to remove any bubbles. […] The deconvoluted spectra were analyzed using R Studio software.

KRas^G12D = tested on: T2, KRas^G12D; experiment: Intact MS photoaffinity labeling screen, KRas G12D (302 nm, LCMS-TOF); conditions: for experimental hit status KRAS-G12D: 0/1 flag; for MS labeling percentage, KRas: KRas G12D, 302 nm 10 min
T2 construct: purchased GSK/GenScript
Procedure: as §1, §2

lysozyme (Lyo) = experiment: Intact protein MS photoaffinity labeling screen, lysozyme; conditions: intact protein MS after 10 min irradiation
Procedure: as §1

myoglobin (Myo) = experiment: Intact protein MS photoaffinity labeling screen, myoglobin; conditions: intact protein MS after 10 min irradiation
Procedure: as §1

STAT5B-NTD [2] = tested on: T3, STAT5B-NTD; experiment: Intact MS photoaffinity labeling screen, STAT5B-NTD (365 nm, UHPLC-MS); conditions: for experimental hit status STAT5B-NTD: 0/1 flag; for MS labeling percentage, STAT5B: STAT5B-NTD, 365 nm 10 min, no photocatalyst;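 on MS labeling percentage, STAT5B: 0.17 µL of 100 mM DMSO fragment stock added to the protein sample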
T3 construct: His-SUMO (N, cleaved yes); made in house; host or cells: E. coli BL21 RILP
Procedure: STAT5B protein in 7 µM concentration in pH 7.4 PBS buffer was pre-incubated with 0.17 µL PhP (in 100 mM DMSO solution) for 1 h at room temperature in dark. Irradiation was carried out at 4 °C for 10 min using 365 nm UV lamp.
(§3) During the analysis, the column temperature was maintained at a constant 60 °C, and a sample volume of 3 µL was injected for each analysis. Data acquisition was conducted in positive ion mode within the m/z 100–2000 (mass-to-charge ratio) range. For the full protocol and spectra of the hits, see Supplementary Note 2.

STAT5B-NTD [3] = tested on: T3, STAT5B-NTD; experiment: Intact MS labeling screen, STAT5B-NTD conjugated with photocatalyst Ir-G2-PEG3-COOH (450 nm); conditions: 450 nm 10 min;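 further: 0.14 µL of 100 mM DMSO fragment stock added to the conjugate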
Procedure: For the photocatalysis experiments, 1.4 µL photocatalyst (in 1.4 mM DMSO solution, 10 eq) was pre-incubated with 1.5 µL coupling reagent (0.75 µL, 5.6 mM EDC (20 eq)+0.75 µL 4.2 mM NHS and 1.5 µL 2.1 mM (15 eq) BOP for 30 min in dark. 30 µL STAT5B-NTD (in 7 µM concentration) was added and incubated further at room temperature overnight or at 37 °C for 1 h in dark. After addition of 0.14 µL PhP (in 100 mM DMSO) the solution was further incubated in dark for 1 h. Irradiation was carried out using 450 nm LED lamp (7.6Vx0A) for 10 min at 4 °C.
as §3

| SMILES | MS labeling percentage, CA [1] [%] | experimental hit status BRD4-BD1 (BRD4-BD1) | MS labeling percentage, BRD4 (BRD4-BD1) [%] | experimental hit status KRAS-G12D (KRas^G12D) | MS labeling percentage, KRas (KRas^G12D) [%] | MS labeling percentage, Lyo (lysozyme (Lyo)) [%] | MS labeling percentage, Myo (myoglobin (Myo)) [%] | experimental hit status STAT5B-NTD (STAT5B-NTD [2]) | MS labeling percentage, STAT5B (STAT5B-NTD [2]) [%] | MS labeling percentage, STAT5B+photocat (STAT5B-NTD [3]) [%] |
| --- | --- | --- | --- | --- | --- | --- | --- | --- | --- | --- |
| Cn1c(CCNC(=O)CCC2(C)N=N2)nc2ccccc21 [PhP020, c1cccc(c12)n(C)c(n2)CCNC(=O)CCC3(C)N=N3] | 0.2 | 0 | 0.4 | 0 | 0 | 0 | 0.3 | 0 | 0 | 0.6 |
| Cc1nn(C)cc1CNC(=O)CCC1(C)N=N1 [PhP021, Cc1nn(C)cc1CNC(=O)CCC2(C)N=N2] | 0.7 | 0 | 0.9 | 0 | 0.2 | 0 | 0.3 | 0 | 1 | 0.4 |
| CC1(CCC(=O)NCCCCN2CCOCC2)N=N1 [PhP022, N1=NC1(C)CCC(=O)NCCCCN2CCOCC2] | 0.5 | 0 | 0.6 | 0 | 0.5 | 0 | 0.2 | 0 | 1 | 0.4 |

The next lines start with results.

| MS labeling percentage, CA [1] [%] | SMILES | experimental hit status BRD4-BD1 (BRD4-BD1) | MS labeling percentage, BRD4 (BRD4-BD1) [%] | experimental hit status KRAS-G12D (KRas^G12D) | MS labeling percentage, KRas (KRas^G12D) [%] | MS labeling percentage, Lyo (lysozyme (Lyo)) [%] | MS labeling percentage, Myo (myoglobin (Myo)) [%] | experimental hit status STAT5B-NTD (STAT5B-NTD [2]) | MS labeling percentage, STAT5B (STAT5B-NTD [2]) [%] | MS labeling percentage, STAT5B+photocat (STAT5B-NTD [3]) [%] |
| --- | --- | --- | --- | --- | --- | --- | --- | --- | --- | --- |
| 0.3 | Cc1cccc2nc(CNC(=O)CCC3(C)N=N3)[nH]c12 [PhP023, c1ccc(C)c(c12)[nH]c(n2)CNC(=O)CCC3(C)N=N3] | 0 | 0.9 | 0 | 0.7 | 0 | 0.2 | 0 | 1 | 0 |
| 0.2 | CC1(CCC(=O)NCc2cccc(C(=O)OC(C)(C)C)c2)N=N1 [PhP024, CC(C)(C)OC(=O)c1cccc(c1)CNC(=O)CCC2(C)N=N2] | 0 | 1.4 | 0 | 0.1 | 0 | 0.2 | 0 | 0 | 7.2 |
| 0.2 | CC1(CCC(=O)NCc2ccccc2NS(C)(=O)=O)N=N1 [PhP025, CS(=O)(=O)Nc1ccccc1CNC(=O)CCC2(C)N=N2] | 0 | 0.2 | 0 | 0.1 | 0 | 0.1 | 0 | 0 | 1.2 |
| 0.4 | Cc1ccc(C(NC(=O)CCC2(C)N=N2)c2ccccn2)cc1 (centres unmarked) [PhP026, n1ccccc1C(c(cc2)ccc2C)NC(=O)CCC3(C)N=N3] | 0 | 0.4 | 0 | 0.3 | 0.4 | 0.2 | 0 | 1 | 5 |
| 0.4 | CC1(CCC(=O)NCCNC(=O)c2ccc(Cl)cc2)N=N1 [PhP027, N1=NC1(C)CCC(=O)NCCNC(=O)c2ccc(Cl)cc2] | 0 | 0.5 | 0 | 0.1 | 0 | 0.2 | 0 | 1 | 5.2 |
